{
  "source": "ChEMBL document CHEMBL1201862",
  "about": "“PubChem BioAssay data set” (2004)",
  "assay_type_in_all_cases": "functional",
  "key": {"[1]": {"biological_target": "Multidrug resistance protein CDR1 (Candida albicans, UniProt P43071)", "assay": "Candida albicans Cdr1 pump inhibition curves – singleplex, Cherry Pick2 set, dose response (AID 623996)", "details": "read-out: EC50_MICROM"}, "[2]": {"biological_target": "Apoptotic protease-activating factor 1 (Homo sapiens, UniProt O14727)", "sequence (O14727 whole entry)": "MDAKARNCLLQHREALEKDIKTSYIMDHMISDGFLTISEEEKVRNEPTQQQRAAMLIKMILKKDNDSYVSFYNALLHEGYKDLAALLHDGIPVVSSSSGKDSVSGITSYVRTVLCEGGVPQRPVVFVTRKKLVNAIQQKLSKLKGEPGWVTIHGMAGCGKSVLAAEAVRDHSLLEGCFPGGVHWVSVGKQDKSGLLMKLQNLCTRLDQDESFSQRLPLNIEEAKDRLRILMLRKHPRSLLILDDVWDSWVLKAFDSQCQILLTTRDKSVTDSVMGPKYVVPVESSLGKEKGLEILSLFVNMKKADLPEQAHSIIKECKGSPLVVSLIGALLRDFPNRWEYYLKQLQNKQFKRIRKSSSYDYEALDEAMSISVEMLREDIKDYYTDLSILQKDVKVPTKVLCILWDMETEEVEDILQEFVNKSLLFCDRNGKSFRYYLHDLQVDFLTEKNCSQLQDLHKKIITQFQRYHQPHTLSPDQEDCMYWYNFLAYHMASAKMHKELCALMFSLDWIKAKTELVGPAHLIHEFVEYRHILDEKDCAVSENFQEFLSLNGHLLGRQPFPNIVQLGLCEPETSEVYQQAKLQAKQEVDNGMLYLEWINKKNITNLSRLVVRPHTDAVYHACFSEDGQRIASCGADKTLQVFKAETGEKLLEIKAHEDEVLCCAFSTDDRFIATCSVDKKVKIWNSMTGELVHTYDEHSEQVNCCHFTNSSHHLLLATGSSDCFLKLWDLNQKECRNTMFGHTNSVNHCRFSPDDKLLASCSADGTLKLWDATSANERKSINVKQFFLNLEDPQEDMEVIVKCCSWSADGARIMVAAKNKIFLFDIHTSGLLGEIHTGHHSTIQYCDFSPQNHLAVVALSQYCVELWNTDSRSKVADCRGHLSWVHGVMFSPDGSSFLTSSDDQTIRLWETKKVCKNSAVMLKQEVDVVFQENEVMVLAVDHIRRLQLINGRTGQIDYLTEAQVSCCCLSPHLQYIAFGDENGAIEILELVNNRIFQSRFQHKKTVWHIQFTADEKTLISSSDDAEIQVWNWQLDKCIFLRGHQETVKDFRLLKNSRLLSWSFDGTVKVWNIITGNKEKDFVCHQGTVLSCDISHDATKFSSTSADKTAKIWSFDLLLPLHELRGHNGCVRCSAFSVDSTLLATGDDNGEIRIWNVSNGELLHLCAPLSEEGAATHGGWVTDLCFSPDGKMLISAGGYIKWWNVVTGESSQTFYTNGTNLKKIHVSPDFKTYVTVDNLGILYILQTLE"}, "[3]": {"biological_target": "T1, Ubiquitin-conjugating enzyme E2 N (Homo sapiens, UniProt P61088)", "T1 sequence (P61088 whole entry)": "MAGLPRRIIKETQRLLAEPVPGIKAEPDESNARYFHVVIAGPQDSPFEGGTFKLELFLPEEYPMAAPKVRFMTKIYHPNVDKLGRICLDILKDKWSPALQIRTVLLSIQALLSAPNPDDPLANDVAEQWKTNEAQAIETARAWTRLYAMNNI"}, "[4]": {"biological_target": "MAP kinase-interacting serine/threonine-protein kinase 2 (Homo sapiens, UniProt Q9HBH9)", "sequence (Q9HBH9 whole entry)": "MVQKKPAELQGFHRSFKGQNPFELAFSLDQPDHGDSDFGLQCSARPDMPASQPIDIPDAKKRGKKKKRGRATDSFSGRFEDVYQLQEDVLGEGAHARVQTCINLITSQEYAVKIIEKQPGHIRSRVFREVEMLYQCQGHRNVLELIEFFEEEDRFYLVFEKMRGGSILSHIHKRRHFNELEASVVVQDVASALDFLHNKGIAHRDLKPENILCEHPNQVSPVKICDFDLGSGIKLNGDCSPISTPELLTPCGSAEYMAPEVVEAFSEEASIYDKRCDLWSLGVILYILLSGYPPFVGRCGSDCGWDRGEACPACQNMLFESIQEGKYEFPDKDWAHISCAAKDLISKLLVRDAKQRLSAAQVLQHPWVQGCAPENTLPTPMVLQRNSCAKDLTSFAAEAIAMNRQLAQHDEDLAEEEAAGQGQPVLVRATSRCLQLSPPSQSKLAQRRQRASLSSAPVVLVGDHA"}, "[5]": {"biological_target": "Mitogen-activated protein kinase kinase kinase kinase 4 (Homo sapiens, UniProt O95819)", "sequence (O95819 whole entry)": "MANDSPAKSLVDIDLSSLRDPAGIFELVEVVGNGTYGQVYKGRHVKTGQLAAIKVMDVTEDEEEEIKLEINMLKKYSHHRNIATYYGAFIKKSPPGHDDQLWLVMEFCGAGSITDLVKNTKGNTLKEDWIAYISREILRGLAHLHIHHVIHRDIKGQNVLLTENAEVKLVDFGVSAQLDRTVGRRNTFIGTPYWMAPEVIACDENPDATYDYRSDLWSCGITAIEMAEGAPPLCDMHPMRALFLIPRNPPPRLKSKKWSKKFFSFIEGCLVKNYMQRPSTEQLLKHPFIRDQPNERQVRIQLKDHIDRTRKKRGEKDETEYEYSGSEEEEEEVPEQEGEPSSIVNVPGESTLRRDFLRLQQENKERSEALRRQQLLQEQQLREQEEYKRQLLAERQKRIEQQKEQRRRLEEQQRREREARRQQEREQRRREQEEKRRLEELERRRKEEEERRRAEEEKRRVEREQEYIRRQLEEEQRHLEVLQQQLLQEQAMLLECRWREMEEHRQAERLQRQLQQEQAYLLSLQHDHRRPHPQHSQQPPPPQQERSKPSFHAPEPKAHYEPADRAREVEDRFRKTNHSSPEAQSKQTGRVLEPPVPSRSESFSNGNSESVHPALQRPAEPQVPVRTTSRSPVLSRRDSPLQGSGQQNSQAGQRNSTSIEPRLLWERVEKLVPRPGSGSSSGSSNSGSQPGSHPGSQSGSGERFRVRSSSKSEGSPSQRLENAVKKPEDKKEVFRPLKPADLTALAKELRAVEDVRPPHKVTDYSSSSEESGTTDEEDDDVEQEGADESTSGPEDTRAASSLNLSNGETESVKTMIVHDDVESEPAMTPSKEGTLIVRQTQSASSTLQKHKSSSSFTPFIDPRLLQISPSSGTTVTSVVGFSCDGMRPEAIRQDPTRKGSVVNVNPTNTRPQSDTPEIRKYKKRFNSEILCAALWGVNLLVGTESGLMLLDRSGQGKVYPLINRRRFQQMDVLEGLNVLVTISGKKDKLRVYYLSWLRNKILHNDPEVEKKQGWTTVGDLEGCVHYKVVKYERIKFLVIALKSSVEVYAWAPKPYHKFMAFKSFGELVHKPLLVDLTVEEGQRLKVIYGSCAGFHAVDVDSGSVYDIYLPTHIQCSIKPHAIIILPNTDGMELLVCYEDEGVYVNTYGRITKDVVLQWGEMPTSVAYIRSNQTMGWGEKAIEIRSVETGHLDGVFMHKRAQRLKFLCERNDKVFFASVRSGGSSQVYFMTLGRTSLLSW"}, "[6]": {"biological_target": "Glycogen synthase kinase-3 beta (Homo sapiens, UniProt P49841)"}, "[7]": {"biological_target": "Interleukin-1 receptor-associated kinase 4 (Homo sapiens, UniProt Q9NWZ3)", "sequence (Q9NWZ3 whole entry)": "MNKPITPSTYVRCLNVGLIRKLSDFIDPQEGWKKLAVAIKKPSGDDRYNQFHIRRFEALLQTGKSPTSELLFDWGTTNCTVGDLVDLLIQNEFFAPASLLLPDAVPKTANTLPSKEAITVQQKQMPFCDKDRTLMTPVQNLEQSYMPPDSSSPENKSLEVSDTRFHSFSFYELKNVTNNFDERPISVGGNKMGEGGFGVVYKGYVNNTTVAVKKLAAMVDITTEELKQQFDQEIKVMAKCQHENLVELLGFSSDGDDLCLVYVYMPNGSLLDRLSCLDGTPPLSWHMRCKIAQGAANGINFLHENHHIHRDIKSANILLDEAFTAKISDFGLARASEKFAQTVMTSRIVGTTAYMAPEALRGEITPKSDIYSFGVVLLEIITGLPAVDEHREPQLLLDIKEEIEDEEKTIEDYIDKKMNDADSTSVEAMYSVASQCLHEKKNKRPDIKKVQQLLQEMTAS"}, "[8]": {"biological_target": "Dual specificity protein kinase CLK4 (Homo sapiens, UniProt Q9HAZ1)", "sequence (Q9HAZ1 whole entry)": "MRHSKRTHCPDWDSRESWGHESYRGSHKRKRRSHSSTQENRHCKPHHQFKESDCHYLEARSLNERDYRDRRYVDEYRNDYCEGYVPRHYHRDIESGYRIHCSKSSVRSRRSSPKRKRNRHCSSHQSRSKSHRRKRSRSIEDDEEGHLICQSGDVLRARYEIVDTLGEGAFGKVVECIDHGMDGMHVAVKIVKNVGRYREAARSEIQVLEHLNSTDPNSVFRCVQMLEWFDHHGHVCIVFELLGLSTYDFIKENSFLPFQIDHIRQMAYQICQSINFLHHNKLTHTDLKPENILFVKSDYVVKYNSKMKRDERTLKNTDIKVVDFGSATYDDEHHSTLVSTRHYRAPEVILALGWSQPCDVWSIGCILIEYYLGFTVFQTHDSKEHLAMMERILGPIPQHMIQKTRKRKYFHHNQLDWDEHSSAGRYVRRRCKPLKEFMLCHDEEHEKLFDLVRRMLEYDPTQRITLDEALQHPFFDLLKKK"}, "[9]": {"biological_target": "cAMP-dependent protein kinase catalytic subunit alpha (Homo sapiens, UniProt P17612)"}, "[10]": {"biological_target": "Serine/threonine-protein kinase pim-1 (Homo sapiens, UniProt P11309)"}, "[11]": {"biological_target": "Cell division cycle 7-related protein kinase (Homo sapiens, UniProt O00311)", "sequence (O00311 whole entry)": "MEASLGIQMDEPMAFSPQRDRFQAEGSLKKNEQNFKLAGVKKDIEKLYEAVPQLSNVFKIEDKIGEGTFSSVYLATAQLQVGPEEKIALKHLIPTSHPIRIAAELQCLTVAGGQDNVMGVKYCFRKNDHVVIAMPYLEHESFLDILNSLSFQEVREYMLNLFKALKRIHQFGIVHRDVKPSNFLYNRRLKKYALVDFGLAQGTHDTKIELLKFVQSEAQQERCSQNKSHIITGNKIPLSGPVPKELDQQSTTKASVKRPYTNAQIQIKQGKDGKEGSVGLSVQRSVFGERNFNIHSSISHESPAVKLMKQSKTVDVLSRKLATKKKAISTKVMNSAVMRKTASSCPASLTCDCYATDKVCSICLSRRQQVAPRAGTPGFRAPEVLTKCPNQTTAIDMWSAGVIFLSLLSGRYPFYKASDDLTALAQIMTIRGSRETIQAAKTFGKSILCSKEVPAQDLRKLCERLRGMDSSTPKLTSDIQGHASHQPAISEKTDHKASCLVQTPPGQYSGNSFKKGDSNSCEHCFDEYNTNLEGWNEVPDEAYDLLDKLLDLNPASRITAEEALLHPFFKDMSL"}, "[12]": {"biological_target": "Homeodomain-interacting protein kinase 2 (Homo sapiens, UniProt Q9H2X6)"}, "[13]": {"biological_target": "Glycogen synthase kinase-3 alpha (Homo sapiens, UniProt P49840)", "sequence (P49840 whole entry)": "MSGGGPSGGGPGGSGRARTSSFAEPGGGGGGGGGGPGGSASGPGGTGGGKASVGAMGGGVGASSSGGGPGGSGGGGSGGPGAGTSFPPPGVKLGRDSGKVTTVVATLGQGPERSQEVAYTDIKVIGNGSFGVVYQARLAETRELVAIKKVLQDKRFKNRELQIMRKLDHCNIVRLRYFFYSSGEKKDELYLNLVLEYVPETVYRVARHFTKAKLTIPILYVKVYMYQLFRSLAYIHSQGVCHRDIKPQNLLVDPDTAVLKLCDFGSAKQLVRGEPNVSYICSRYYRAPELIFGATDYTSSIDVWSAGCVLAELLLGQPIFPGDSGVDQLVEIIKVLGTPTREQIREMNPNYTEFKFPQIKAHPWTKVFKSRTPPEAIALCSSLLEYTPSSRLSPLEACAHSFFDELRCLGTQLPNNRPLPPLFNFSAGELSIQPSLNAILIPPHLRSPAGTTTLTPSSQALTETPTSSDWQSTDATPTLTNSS"}, "[14]": {"biological_target": "T2, Sentrin-specific protease 6 (Homo sapiens, UniProt Q9GZR1)", "T2 sequence (Q9GZR1 whole entry)": "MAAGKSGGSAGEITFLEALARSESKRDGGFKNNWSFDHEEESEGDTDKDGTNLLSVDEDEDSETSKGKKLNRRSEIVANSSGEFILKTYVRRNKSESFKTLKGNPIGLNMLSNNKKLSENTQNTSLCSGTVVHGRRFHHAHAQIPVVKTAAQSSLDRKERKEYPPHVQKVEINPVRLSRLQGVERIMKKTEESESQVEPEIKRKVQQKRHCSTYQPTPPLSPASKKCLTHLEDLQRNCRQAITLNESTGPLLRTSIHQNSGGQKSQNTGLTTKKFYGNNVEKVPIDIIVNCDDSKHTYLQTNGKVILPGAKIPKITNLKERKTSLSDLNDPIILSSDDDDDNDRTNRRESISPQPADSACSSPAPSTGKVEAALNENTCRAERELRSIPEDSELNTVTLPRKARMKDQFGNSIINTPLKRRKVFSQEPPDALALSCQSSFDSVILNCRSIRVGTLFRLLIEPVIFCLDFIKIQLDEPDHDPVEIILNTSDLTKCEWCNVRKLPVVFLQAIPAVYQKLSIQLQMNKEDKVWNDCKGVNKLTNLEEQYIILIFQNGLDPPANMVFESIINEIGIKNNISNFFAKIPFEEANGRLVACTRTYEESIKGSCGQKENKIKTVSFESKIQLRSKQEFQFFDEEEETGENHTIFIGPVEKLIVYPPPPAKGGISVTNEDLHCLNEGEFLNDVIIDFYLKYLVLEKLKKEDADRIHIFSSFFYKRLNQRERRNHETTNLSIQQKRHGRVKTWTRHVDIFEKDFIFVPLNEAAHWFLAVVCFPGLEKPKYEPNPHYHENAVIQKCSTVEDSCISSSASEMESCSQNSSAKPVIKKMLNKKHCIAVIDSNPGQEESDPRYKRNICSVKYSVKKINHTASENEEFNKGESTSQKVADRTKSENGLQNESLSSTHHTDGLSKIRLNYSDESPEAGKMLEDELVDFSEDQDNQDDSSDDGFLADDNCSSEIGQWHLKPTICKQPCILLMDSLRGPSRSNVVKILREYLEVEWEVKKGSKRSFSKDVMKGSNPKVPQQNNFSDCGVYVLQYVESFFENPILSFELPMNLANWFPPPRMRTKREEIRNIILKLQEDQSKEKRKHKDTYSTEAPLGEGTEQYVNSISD", "assay": "SAR Analysis of small molecule inhibitors of Sentrin-specific protease 6 (SENP6) using a Luminescent assay. [Related pubchem assays (depositor defined):AID2582, AID2599]"}, "[15]": {"biological_target": "T3, Sentrin-specific protease 8 (Homo sapiens, UniProt Q96LD8)", "T3 sequence (Q96LD8 whole entry)": "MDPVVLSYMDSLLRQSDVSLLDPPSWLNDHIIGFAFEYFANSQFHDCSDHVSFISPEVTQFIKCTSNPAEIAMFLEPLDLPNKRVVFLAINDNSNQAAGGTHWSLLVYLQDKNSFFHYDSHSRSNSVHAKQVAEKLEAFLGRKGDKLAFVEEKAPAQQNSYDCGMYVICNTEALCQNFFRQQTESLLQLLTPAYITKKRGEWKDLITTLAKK", "assay": "inhibition of human SENP8 cleavage activity – biochemical, luminescence, SAR follow-up (AID 504501)"}, "[16]": {"biological_target": "T4, Caspase-3 (Homo sapiens, UniProt P42574)", "T4 sequence (P42574 whole entry)": "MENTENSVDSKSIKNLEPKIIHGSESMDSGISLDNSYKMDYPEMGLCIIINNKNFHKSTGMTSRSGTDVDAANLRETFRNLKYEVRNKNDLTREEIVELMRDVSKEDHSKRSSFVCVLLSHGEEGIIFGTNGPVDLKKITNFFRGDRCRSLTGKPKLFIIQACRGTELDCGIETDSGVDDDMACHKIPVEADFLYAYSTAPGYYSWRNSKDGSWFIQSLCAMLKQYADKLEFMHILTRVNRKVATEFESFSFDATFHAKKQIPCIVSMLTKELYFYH", "assay": "SAR Analysis of small molecule inhibitors of Sentrin-specific proteases (SENPs) using a Caspase-3 Selectivity assay. [Related pubchem assays (depositor defined):AID2540, AID2599, AID434973, AID489001]"}, "[17]": {"biological_target": "T5, Sentrin-specific protease 7 (Homo sapiens, UniProt Q9BQF6)", "T5 sequence (Q9BQF6 whole entry)": "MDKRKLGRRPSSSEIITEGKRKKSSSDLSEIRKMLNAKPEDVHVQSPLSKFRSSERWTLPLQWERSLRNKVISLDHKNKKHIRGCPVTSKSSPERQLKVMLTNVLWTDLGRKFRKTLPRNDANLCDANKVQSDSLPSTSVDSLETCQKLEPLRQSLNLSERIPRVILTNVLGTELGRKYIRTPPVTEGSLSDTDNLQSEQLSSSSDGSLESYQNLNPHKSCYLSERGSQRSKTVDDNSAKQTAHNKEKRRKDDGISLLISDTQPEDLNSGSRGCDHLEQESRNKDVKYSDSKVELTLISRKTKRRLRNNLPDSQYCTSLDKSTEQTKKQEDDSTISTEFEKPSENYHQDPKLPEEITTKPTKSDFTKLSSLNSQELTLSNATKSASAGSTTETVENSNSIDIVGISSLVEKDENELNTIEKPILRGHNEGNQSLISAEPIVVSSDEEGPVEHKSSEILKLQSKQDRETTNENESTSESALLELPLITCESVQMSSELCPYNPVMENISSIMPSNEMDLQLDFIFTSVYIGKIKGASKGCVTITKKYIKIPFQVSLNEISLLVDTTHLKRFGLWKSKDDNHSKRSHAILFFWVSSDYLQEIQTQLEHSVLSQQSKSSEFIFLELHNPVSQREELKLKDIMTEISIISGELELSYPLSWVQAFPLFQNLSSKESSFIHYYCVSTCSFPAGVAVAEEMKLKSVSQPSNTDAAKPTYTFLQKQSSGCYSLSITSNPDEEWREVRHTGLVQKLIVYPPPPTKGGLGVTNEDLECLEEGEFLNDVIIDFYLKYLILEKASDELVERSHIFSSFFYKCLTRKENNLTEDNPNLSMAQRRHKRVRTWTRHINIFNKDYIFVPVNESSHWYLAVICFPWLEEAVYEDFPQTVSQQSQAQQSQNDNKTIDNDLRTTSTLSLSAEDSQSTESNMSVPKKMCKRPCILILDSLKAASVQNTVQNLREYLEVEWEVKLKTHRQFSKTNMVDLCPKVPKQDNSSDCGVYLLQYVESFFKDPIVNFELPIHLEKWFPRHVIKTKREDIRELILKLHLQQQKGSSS", "assay": "inhibition of human SENP7 cleavage activity – biochemical, luminescence, SAR follow-up (AID 504497)"}, "[18]": {"biological_target": "T3, Sentrin-specific protease 8", "assay": "inhibition of sentrin protease 8 – biochemical, luminescence, set 2, SAR follow-up (AID 588601)"}, "[19]": {"biological_target": "T2, Sentrin-specific protease 6", "assay": "inhibition of human SENP6 catalytic domain – biochemical, luminescence, set 2, SAR follow-up (AID 588598)"}, "[20]": {"biological_target": "T5, Sentrin-specific protease 7", "assay": "inhibition of human SENP7 cleavage activity – biochemical, luminescence, set 2, SAR follow-up (AID 588600)"}, "[21]": {"biological_target": "T4, Caspase-3", "assay": "inhibition of recombinant caspase-3 activity – biochemical, luminescence, set 2, selectivity assay for SENP protease inhibitor project, SAR follow-up (AID 588599)"}, "[22]": {"biological_target": "T6, High affinity choline transporter 1 (Homo sapiens, UniProt Q9GZV3)", "T6 sequence (Q9GZV3 whole entry)": "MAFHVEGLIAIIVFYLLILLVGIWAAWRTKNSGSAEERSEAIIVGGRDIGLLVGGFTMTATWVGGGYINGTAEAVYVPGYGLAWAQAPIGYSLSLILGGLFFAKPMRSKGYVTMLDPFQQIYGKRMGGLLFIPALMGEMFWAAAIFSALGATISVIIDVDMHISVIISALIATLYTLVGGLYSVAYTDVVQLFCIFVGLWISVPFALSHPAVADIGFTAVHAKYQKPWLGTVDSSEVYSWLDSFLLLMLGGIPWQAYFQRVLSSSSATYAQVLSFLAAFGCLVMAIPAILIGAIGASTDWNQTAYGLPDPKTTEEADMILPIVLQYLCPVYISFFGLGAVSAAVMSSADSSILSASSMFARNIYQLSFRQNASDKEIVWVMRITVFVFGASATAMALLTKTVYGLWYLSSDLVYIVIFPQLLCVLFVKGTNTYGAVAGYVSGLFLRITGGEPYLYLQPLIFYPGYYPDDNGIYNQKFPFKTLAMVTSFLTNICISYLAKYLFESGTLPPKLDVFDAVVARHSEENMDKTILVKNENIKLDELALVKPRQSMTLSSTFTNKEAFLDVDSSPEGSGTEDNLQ", "assay": "human choline transporter potentiators, potency – cell-based, 10-point CRC, membrane potential dye, dose response (AID 602376)"}},
  "note": "Activity calls are given as the source filed them.",
  "data": [
    {"compound": "COc1ccc2c(c1)OC[C@H]1[C@H]2N2C(=O)c3ccc(C)cc3NC(=O)[C@@]2(C)[C@H]1c1ccccc1", "values": [
      {"measurement": "EC50", "setting": "[1]", "value": "17.3 µM (active)"}
    ]},
    {"compound": "COc1ccccc1C(CNC(=O)CNC(=O)c1ccccc1Cl)N1CCCC1", "note": "(stereo not drawn)", "values": [
      {"measurement": "IC50", "setting": "[2]", "value": "> 100 µM (inactive)"},
      {"measurement": "IC50", "setting": "[3]", "value": "> 20 µM (inactive)"}
    ]},
    {"compound": "NC(=O)c1ccc(-c2ccncc2)cc1NCc1cccc(F)c1", "values": [
      {"measurement": "Ki", "setting": "[4]", "value": "> 10 µM (inactive)"},
      {"measurement": "Ki", "setting": "[5]", "value": "2 µM (active)"},
      {"measurement": "Ki", "setting": "[6]", "value": "0.794 µM (active)"},
      {"measurement": "Ki", "setting": "[7]", "value": "> 10 µM (inactive)"},
      {"measurement": "Ki", "setting": "[8]", "value": "0.1 µM (active)"},
      {"measurement": "Ki", "setting": "[9]", "value": "> 7.94 µM (inactive)"},
      {"measurement": "Ki", "setting": "[10]", "value": "7.94 µM (active)"},
      {"measurement": "Ki", "setting": "[11]", "value": "0.158 µM (active)"},
      {"measurement": "Ki", "setting": "[12]", "value": "> 3.16 µM (inactive)"}
    ]},
    {"compound": "Cc1cc(O)nc2[nH]nc(-c3cccc(-c4cccc(C#N)c4)c3)c12", "values": [
      {"measurement": "Ki", "setting": "[13]", "value": "3.16 µM (active)"},
      {"measurement": "Ki", "setting": "[5]", "value": "5.01 µM (active)"}
    ]},
    {"compound": "CS(=O)(=O)c1ccc2nc(NC(=O)c3c(F)cccc3F)sc2c1", "values": [
      {"measurement": "IC50", "setting": "[14]", "value": "> 99 µM (inactive)"},
      {"measurement": "IC50", "setting": "[15]", "value": "> 99 µM (inactive)"},
      {"measurement": "IC50", "setting": "[16]", "value": "> 99 µM (inactive)"},
      {"measurement": "IC50", "setting": "[17]", "value": "> 99 µM (inactive)"}
    ]},
    {"compound": "O=C(C(=O)N1CCCc2ccccc21)c1c[nH]c2ccccc12", "values": [
      {"measurement": "IC50", "setting": "[18]", "value": "> 99 µM (inactive)"},
      {"measurement": "IC50", "setting": "[19]", "value": "> 99 µM (inactive)"},
      {"measurement": "IC50", "setting": "[20]", "value": "> 99 µM (inactive)"},
      {"measurement": "IC50", "setting": "[21]", "value": "> 99 µM (inactive)"}
    ]},
    {"compound": "CCCCNC(=O)COCc1cc(-c2ccc3c(c2)OCO3)on1", "values": [
      {"measurement": "EC50", "setting": "[22]", "value": "8.04 µM (active)"}
    ]}
  ]
}
